# Experimental data from ChEMBL document CHEMBL3992492, “Sulfoximines from a Medicinal Chemist's Perspective: Physicochemical and in vitro Parameters Relevant for Drug Discovery” (Eur J Med Chem, 2017).
# Assays:
# in vitro [1] = conditions: human, liver microsomes
# [2] = Apparent partition coefficient, log P of the compound in n-octanol/aqueous mixture by potentiometric titration method; type: physicochemical
# in vitro [3] = conditions: human, liver microsomes; remark: listed apart in the source
# Description: Half life in human liver microsomes at 1 uM in presence of NADPH by LC-MS/MS method
# in vitro [4] = conditions: PAMPA, pH 7.4
# Description: Apparent permeability of the compound at pH 7.4 by PAMPA
# physchem [5] = conditions: acetonitrile/water mixture
# Description: Solubility of the compound in acetonitrile/water mixture at 10 mM measured after 24 by HPLC-UV method
# physchem [6] = conditions: aqueous
# physchem [7] = conditions: octanol/water, pH 10
# [8] = Drug degradation in pH <1 HCl after 7 days by HPLC method
# [9] = Drug degradation in pH >10 NH3 after 7 days by HPLC method
# [10] = Dissociation constant, pKb of the compound in aqueous/organic mixture at pH 2 to 12 by potentiometric titration method; type: physicochemical; conditions: buffer
Structure (SMILES),hepatic extraction ratio at 1 µM (in vitro [1]),logP [2],half-life at 1 µM (in vitro [3]),Papp (in vitro [4]),solubility at 10000 µM (physchem [5]),solubility thermodynamic (physchem [6]),logP (physchem [7]),Drug degradation [8],Drug degradation [9],pKb [10]
O=S1(=Nc2ccc(C(F)(F)F)cc2)CCCC1,0.26,2.4,1.83 h,8.7 ×10⁻⁶ cm/s,50 µg/mL,6000 µg/mL,–,–,–,–
CCS(C)(=O)=Nc1ccc(C(F)(F)F)cc1 (configuration not stated),< 0.23,2,> 2.17 h,7.7 ×10⁻⁶ cm/s,> 51 µg/mL,–,–,–,–,–
C[S@@](=O)(=Nc1ccc(C(F)(F)F)cc1)c1ccccc1,< 0.23,3.7,> 2.17 h,3.5 ×10⁻⁶ cm/s,17 µg/mL,–,–,–,–,–
CS(=O)(=Nc1ccc(C(F)(F)F)cc1)c1ccncc1 (configuration not stated),0.41,2.6,0.933 h,6.2 ×10⁻⁶ cm/s,44 µg/mL,–,–,–,–,–
CS(=O)(=Nc1ccc(C(F)(F)F)cc1)C1CCOCC1 (configuration not stated),< 0.23,2.5,> 2.17 h,9.6 ×10⁻⁶ cm/s,46 µg/mL,–,–,–,–,–
CC(=O)Nc1ccc(C(F)(F)F)cc1,0.39,–,1 h,6 ×10⁻⁶ cm/s,10 µg/mL,100 µg/mL,1.8,–,–,–
COc1ccc(N=S2(=O)CCCCC2)cc1,< 0.23,-0.1,> 2.17 h,9.1 ×10⁻⁶ cm/s,> 51 µg/mL,900 µg/mL,–,–,–,–
CS(=O)(=O)c1ccc(C(F)(F)F)cc1,–,–,–,–,> 47 µg/mL,300 µg/mL,1.5,–,–,–
CS(=O)(=O)Oc1ccc(C(F)(F)F)cc1,–,–,–,–,–,300 µg/mL,4.3,–,–,–
CNC(=O)c1ccc(C(F)(F)F)cc1,< 0.23,–,> 2.17 h,5.7 ×10⁻⁶ cm/s,–,200 µg/mL,0.5,–,–,–
CS(C)(=O)=NC(=O)Nc1ccc(C(F)(F)F)cc1,< 0.23,–,> 2.17 h,4.3 ×10⁻⁶ cm/s,44 µg/mL,40 µg/mL,1.6,< 10%,14%,–
NC(=O)c1ccc(C(F)(F)F)cc1,–,–,–,–,> 44 µg/mL,300 µg/mL,0.3,–,–,–
Cn1cc(N=S2(=O)CCCCC2)cn1,< 0.23,-3.9,> 2.17 h,3.2 ×10⁻⁶ cm/s,39 µg/mL,–,–,–,–,–
O=S1(=Nc2ccc(F)cc2)CCCCC1,0.25,0.7,2 h,9.5 ×10⁻⁶ cm/s,> 46 µg/mL,> 1000 µg/mL,–,–,–,–
C[S@](=O)(=Nc1ccc(C(F)(F)F)cc1)c1ccccc1,< 0.23,3.7,> 2.17 h,2.5 ×10⁻⁶ cm/s,20 µg/mL,–,–,–,–,–
CC(C)(C)S(C)(=O)=Nc1ccc(C(F)(F)F)cc1 (configuration not stated),–,3.1,–,–,22 µg/mL,–,–,–,–,–
O=S1(=Nc2ccc(C(F)(F)F)cc2)CCC1,< 0.23,2.5,> 2.17 h,9.6 ×10⁻⁶ cm/s,48 µg/mL,–,–,–,–,–
CN(C)S(C)(=O)=Nc1ccc(C(F)(F)F)cc1 (configuration not stated),0.48,–,0.7 h,7.6 ×10⁻⁶ cm/s,41 µg/mL,70 µg/mL,2.4,–,–,–
O=S1(=Nc2ccc(C(F)(F)F)cc2)CCCCC1,0.46,2.8,0.767 h,7.7 ×10⁻⁶ cm/s,51 µg/mL,70 µg/mL,2.8,< 10%,< 10%,–
O=S1(=Nc2ccccc2Cl)CCCCC1,0.58,2,0.467 h,12 ×10⁻⁶ cm/s,> 50 µg/mL,500 µg/mL,–,–,–,–
CC(=O)N(C)c1ccc(C(F)(F)F)cc1,–,–,–,9.7 ×10⁻⁶ cm/s,> 52 µg/mL,1300 µg/mL,0.8,–,–,–
CC(C)(C)NC(=O)c1ccc(C(F)(F)F)cc1,< 0.23,–,> 2.17 h,7.1 ×10⁻⁶ cm/s,14 µg/mL,10 µg/mL,2.6,–,–,–
CNS(C)(=O)=Nc1ccc(C(F)(F)F)cc1 (configuration not stated),< 0.23,–,> 2.17 h,5 ×10⁻⁶ cm/s,> 54 µg/mL,800 µg/mL,1.6,–,–,–
O=S1(=Nc2cccnc2)CCCCC1,0.82,-2.7,0.133 h,5.8 ×10⁻⁶ cm/s,> 75 µg/mL,–,–,–,–,4.8

Structure (SMILES),hepatic extraction ratio at 1 µM (in vitro [1]),logP [2],half-life at 1 µM (in vitro [3]),Papp (in vitro [4]),solubility at 10000 µM (physchem [5]),solubility thermodynamic (physchem [6]),logP (physchem [7]),Drug degradation [8],Drug degradation [9],pKb [10]
CS(=O)(=Nc1ccc(C(F)(F)F)cc1)c1cccnc1 (configuration not stated),< 0.23,2.5,> 2.17 h,8.4 ×10⁻⁶ cm/s,47 µg/mL,–,–,–,–,–
O=S1(=Nc2ccc(C(F)(F)F)cc2)CCOCC1,< 0.23,2.7,> 2.17 h,8 ×10⁻⁶ cm/s,> 57 µg/mL,300 µg/mL,–,–,–,–
N#Cc1ccc(N=S2(=O)CCCCC2)cc1,< 0.23,1.1,> 2.17 h,7.9 ×10⁻⁶ cm/s,45 µg/mL,–,–,–,–,–
O=S1(=Nc2ccccc2)CCCCC1,< 0.23,-0.1,> 2.17 h,9.5 ×10⁻⁶ cm/s,37 µg/mL,–,–,–,–,–
O=S1(=Nc2ccc(C(F)(F)F)cc2)CCNCC1,0.25,0.9,1.83 h,8.3 ×10⁻⁶ cm/s,> 57 µg/mL,2300 µg/mL,–,–,–,5.2
CC(C)(C)OC(=O)c1ccc(C(F)(F)F)cc1,–,–,–,–,7 µg/mL,20 µg/mL,4.8,–,–,–
O=S1(=Nc2ccncc2)CCCCC1,< 0.23,-2.6,> 2.17 h,5.7 ×10⁻⁶ cm/s,42 µg/mL,–,–,–,–,7.2
CS(C)(=O)=Nc1ccc(C(F)(F)F)cc1,< 0.23,1.4,> 2.17 h,8.2 ×10⁻⁶ cm/s,> 50 µg/mL,900 µg/mL,1.4,13%,20%,–
CS(=O)(=O)Cc1ccc(C(F)(F)F)cc1,–,–,–,–,–,400 µg/mL,1.3,–,–,–
CN=S(=O)(NC)c1ccc(C(F)(F)F)cc1 (configuration not stated),< 0.23,–,> 2.17 h,9.8 ×10⁻⁶ cm/s,–,1200 µg/mL,0.4,< 10%,< 10%,–
CN=S(=O)(c1ccc(C(F)(F)F)cc1)N(C)C (configuration not stated),< 0.23,–,> 2.17 h,9.5 ×10⁻⁶ cm/s,–,1200 µg/mL,1.5,< 10%,10%,–
CN(c1ccc(C(F)(F)F)cc1)S(C)(=O)=O,–,–,–,–,46 µg/mL,200 µg/mL,2.5,–,–,–
C[S+]([O-])c1ccc(C(F)(F)F)cc1 (configuration not stated),–,–,–,–,> 46 µg/mL,11100 µg/mL,-0.3,–,–,–
CN(C)S(=O)(=O)c1ccc(C(F)(F)F)cc1,–,–,–,–,47 µg/mL,90 µg/mL,2.7,–,–,–
O=S1(=Nc2cc(C(F)(F)F)cc(C(F)(F)F)c2)CCCCC1,0.87,4,0.1 h,3.3 ×10⁻⁶ cm/s,< 1 µg/mL,–,–,–,–,–
CS(=O)(=Nc1ccc(C(F)(F)F)cc1)C1CC1 (configuration not stated),< 0.23,2.3,> 2.17 h,7.8 ×10⁻⁶ cm/s,40 µg/mL,–,–,–,–,–
CC(C)(C)OC(=O)Nc1ccc(C(F)(F)F)cc1,–,–,–,0.8 ×10⁻⁶ cm/s,< 1 µg/mL,< 1 µg/mL,4.4,–,–,–
C[S+]([O-])Cc1ccc(C(F)(F)F)cc1 (configuration not stated),0.25,–,1.83 h,6.3 ×10⁻⁶ cm/s,> 51 µg/mL,4300 µg/mL,-0.5,–,–,–
CC(C)(C)NC(=O)Nc1ccc(C(F)(F)F)cc1,< 0.23,–,> 2.17 h,5.1 ×10⁻⁶ cm/s,< 1 µg/mL,20 µg/mL,3.4,–,–,–
CN=S(C)(=O)c1ccc(C(F)(F)F)cc1 (configuration not stated),< 0.23,–,> 2.17 h,11 ×10⁻⁶ cm/s,> 54 µg/mL,2400 µg/mL,0.1,< 10%,< 10%,–
CS(C)(=N)=NC(=O)Nc1ccc(C(F)(F)F)cc1,–,–,–,3.3 ×10⁻⁶ cm/s,> 68 µg/mL,500 µg/mL,0.4,< 10%,< 10%,3.3
CS(C)(=N)=NC(=O)c1ccc(C(F)(F)F)cc1,< 0.23,–,> 2.17 h,9.2 ×10⁻⁶ cm/s,–,8100 µg/mL,0.4,> 90%,34%,–
CS(C)(=O)=NC(=O)c1ccc(C(F)(F)F)cc1,0.39,–,1.03 h,11 ×10⁻⁶ cm/s,> 53 µg/mL,300 µg/mL,1.8,> 90%,< 10%,–
